The values that follow come from patent EP2039683B1, “Vasculostatic agents and methods of use thereof” (Targegen, Inc., priority 2002, dated 2004).

One assay relates to histamine as agonist. The assay can be described thus: Miles assay, histamine as agonist. The assay is classed as in vivo, Sprague-Dawley rats. Particulars: 1.5 mg/kg; histamine 10 µg/injection site; vehicle 12. How it is done:
Sprague-Dawley rats were first injected IV with vehicle alone or test agent, followed by IV injection of Evans blue dye, followed by intradermal injections of saline and VEGF (200 ng/injection site) along both shaved flanks.
The ability of test agents to influence edema induced by agonists other than VEGF was also tested.
The ability of test agent to influence vascular edema was tested as above, except that the ability to block edema was tested using either VEGF or histamine as the agonist (200 ng and 10 µg/injection site, respectively).

Assay [1] can be described thus: Cerebral stroke model, permanent middle cerebral artery occlusion. The assay is classed as in vivo, mice. Particulars: 1 mg/kg BW IV 60 min after ligation; for Infarct area in mm^3 (mean ± SEM): twenty four hours later; for % Infarct reduction: versus vehicle of the same study. How it is done:
Cerebral strokes were created in mice by permanent ligation of the middle cerebral artery using a cauterizing tool, followed 60 min later by IV injection of either vehicle alone (50% PEG400 in water) or test agents (at 1 mg/kg BW). Twenty four hours later, brains were sectioned and stained using triphenyltetrazolium chloride to delineate viable from infarcted tissue.

The test system of another assay is angiogenesis. The assay can be described thus: Matrigel plug angiogenesis model, FITC-lectin quantification. The assay is classed as in vivo, Athymic WeHi (nu/nu) mice. Particulars: 10 mg/kg intraperitoneally bid for four days; matrigel with 400 ng/ml bFGF or VEGF. How it is done:
FIGURE 13 (omitted) and 14 (omitted) illustrate the effects of invention compounds for their capacity to inhibit angiogenesis in vivo. […] Tumor extracellular matrix infused with the 160 ng of the described growth factors were injected subcutaneously in a Balb/C mouse. The described invention compound was injected daily at the described concentration for 5 days. After 5 days the animals were sacrificed and angiogenesis quantified based on the binding of fluorescently labeled, endothelium specific FITC-lectin. In the graph, compound A is 6,7-bis(4-hydroxyphenyl)-pteridin-4-ylamine sulfate salt.
Referring to FIGURES 13 (omitted) and 14 (omitted), a murine model of angiogenesis was used to screen compounds for their capacity to inhibit angiogenesis. […] In the graph, compound A is 6,7-bis(4-hydroxyphenyl)-pteridin-4-ylamine sulfate salt. Athymic WeHi (nu/nu) mice were first injected with 400; jls of an ice- cold tumor-derived extracellular matrix substrate, matrigel (Becton-Dickinson) infused with 400 ng/ml of bFGF or VEGF (R & D Systems) which rapidly solidifies into a subdermal plug at body temperature. […] Twenty minutes after injection of the lectin, mice were euthanized, matrigel plugs were then extracted, solublized in PBS with mechanical grinding and the fluorescent content of individual plugs was quantified. […]

Another assay deals with CTLL2. The assay can be described thus: IL-2 dependent T-cell proliferation, XTT assay. Particulars: 96 hours, 50 pg human recombinant IL-2. The assay is classed as cell-based, mouse.
A further assay relates to IL-2 induced VLS. Nature of the assay: IL-2 induced vascular leak syndrome, organ wet/dry weight. Particulars: compound D in the 1 mg/kg range, compound E in the 0.1 mg/kg range; for reduction of VLS in the heart / reduction of VLS in the spleen: 9 injections of murine IL-2 and/or compound over 4 days.
Assay [2] can be described thus: Oleic acid induced ARDS lung edema, wet/dry weight. The assay is classed as in vivo, NIH Swiss mice. Particulars: 0.5 mg/kg range; 1.5 mg/kg Oleic Acid intraperitoneal, lungs collected after four hours. How it is done: FIGURE 12 (omitted) illustrates the effects of invention compounds for their capacity to inhibit edema associated with Acute Respiratory Distress Syndrome (ARDS). NIH Swiss mice were given an intraperitoneal injection of 1.5 mg/kg Oleic Acid of (in this example formulated in saline) and/or invention compounds.
NIH Swiss mice were given an intraperitoneal injection of 1.5 mg/kg Oleic Acid of (in this example formulated in saline) and/or invention compounds.

Description for IL-2 induced VLS: BalbC mice were given 9 injections of the indicated dose of murine IL-2 (in this example formulated in saline with 5% bovine serum albumin) and/or invention compounds over a period of 4 days. Animals were then sacrificed followed by collection, blotting and weighing (wet weight) of heart, lungs, and spleen.
BalbC mice were given 9 injections of the indicated dose of murine IL-2 and/or invention compounds over a period of 4 days. Animals were then sacrificed followed by collection, blotting and weighing (wet weight) of heart, lungs, and spleen.

As to `O=C(Nc1cc2ccccc2[nH]1)c1cc(O)c(O)c(O)c1` [3,4,5-Trihydroxy-N-(1H-indol-2-yl)-benzamide], the “Score with histamine as agonist (scale of 0-12)” value (“Score with histamine as agonist” below) with histamine as agonist was found to be 7.

In the case of `O=C(Nc1ccccc1-c1cc2ccccc2[nH]1)c1cc(O)c(O)c(O)c1` [3,4,5-Trihydroxy-N-[2-(1H-indol-2-yl)-phenyl]-benzamide], the “Score with histamine as agonist” value in the assay with histamine as agonist was found to be 7.

On to `Nc1ncnc2nc(-c3ccccn3)c(-c3ccccn3)nc12` [6,7-Di-pyridin-2-yl-pteridin-4-ylamine], for which, in assay [1], the “Infarct area in mm^3 (mean ± SEM)” value was 27.2 ± 2.63 mm^3 and the “% Infarct reduction” value is given as “Not significant”.

As for `Oc1ncnc2nc(-c3ccccc3)c(-c3ccccc3)nc12` [6,7-Diphenyl-pteridin-4-ol], the “Score with histamine as agonist” value in the assay with histamine as agonist turned out to be 4.

For the molecule `Oc1nc(O)c2nc(-c3ccccc3)c(-c3ccccc3)nc2n1` [6,7-Diphenyl-pteridine-2,4-diol], in assay [1], the “Infarct area in mm^3 (mean ± SEM)” value came to 20.2 ± 4.19 mm^3 and the “% Infarct reduction” value was found to be 52%.

Regarding `Cc1ccc(-c2nn(C(C)(C)C)c3ncnc(N)c23)cc1` [PP1, reference compound], the “% Infarct reduction” value in assay [1] is on record as “Not significant”.

`CN(C)S(=O)(=O)c1ccc2c(c1)/C(=C/c1cc3c([nH]1)CCCC3)C(=O)N2` [SU6656, reference compound]: in assay [1], the “Infarct area in mm^3 (mean ± SEM)” value worked out at 24.3 ± 5.3 mm^3 and the “% Infarct reduction” value is on record as “Not significant”.

Consider `Nc1ncnc2nc(-c3ccc(O)cc3)c(-c3ccc(O)cc3)nc12.O=S(=O)(O)O` [compound A, 6,7-bis(4-hydroxyphenyl)-pteridin-4-ylamine sulfate salt], for which the “inhibition of angiogenesis in vivo” value in the assay with angiogenesis was “successfully inhibited angiogenesis in vivo”.

As for `O=C(O)c1ccccc1C(=O)Nc1ccccc1-c1cc2ccccc2[nH]1` [compound D], the “impact on IL-2 induced T-cell proliferation” value in the assay on CTLL2 (in the 1 mg/kg range as printed) is on record as “no significant impact”. For the same molecule, in assay [1], the “Infarct area in mm^3 (mean ± SEM)” value amounted to 15.6 ± 5.16 mm^3 and the “% Infarct reduction” value is recorded as 63%. Moreover, in the assay with IL-2 induced VLS, the “reduction of VLS in the heart” value is recorded as above 100%, the “reduction of VLS in the spleen” value is listed as above 100% and the “reducing VLS in vivo” value is 80-100%.

`Nc1nc(N)c2nc(-c3cccc(O)c3)c(-c3cccc(O)c3)nc2n1.O=S(=O)(O)O` [compound E]: the “impact on IL-2 induced T-cell proliferation” value with CTLL2 (in the therapeutic range (< 1pM)) is listed as “no significant impact”. Moreover, in the assay with IL-2 induced VLS, the “reduction of VLS in the heart” value is above 100%, the “reduction of VLS in the spleen” value was above 100% and the “reducing VLS in vivo” value is recorded as 80-100%.

With `Nc1ncnc2nc(-c3ccc(O)c(O)c3)c(-c3ccc(O)c(O)c3)nc12` [compound F, 4-[4-amino-6-(3,4-dihydroxyphenyl)pteridin-7-yl]benzene-1,2-diol], in assay [2], the “reduction of ARDS-induced edema” value is above 100%.
